Format in all cases: biochemical
For experiment [1], the target named is T1, purified rat liver 6-phosphofructo-1-kinase (Rattus norvegicus, UniProt P30835).
T1 construct: 0.1U of purified rat liver 6-phosphofructo-1-kinase; from tissue; host or cells: rat liver
T1 sequence (P30835 2-780 limits assumed): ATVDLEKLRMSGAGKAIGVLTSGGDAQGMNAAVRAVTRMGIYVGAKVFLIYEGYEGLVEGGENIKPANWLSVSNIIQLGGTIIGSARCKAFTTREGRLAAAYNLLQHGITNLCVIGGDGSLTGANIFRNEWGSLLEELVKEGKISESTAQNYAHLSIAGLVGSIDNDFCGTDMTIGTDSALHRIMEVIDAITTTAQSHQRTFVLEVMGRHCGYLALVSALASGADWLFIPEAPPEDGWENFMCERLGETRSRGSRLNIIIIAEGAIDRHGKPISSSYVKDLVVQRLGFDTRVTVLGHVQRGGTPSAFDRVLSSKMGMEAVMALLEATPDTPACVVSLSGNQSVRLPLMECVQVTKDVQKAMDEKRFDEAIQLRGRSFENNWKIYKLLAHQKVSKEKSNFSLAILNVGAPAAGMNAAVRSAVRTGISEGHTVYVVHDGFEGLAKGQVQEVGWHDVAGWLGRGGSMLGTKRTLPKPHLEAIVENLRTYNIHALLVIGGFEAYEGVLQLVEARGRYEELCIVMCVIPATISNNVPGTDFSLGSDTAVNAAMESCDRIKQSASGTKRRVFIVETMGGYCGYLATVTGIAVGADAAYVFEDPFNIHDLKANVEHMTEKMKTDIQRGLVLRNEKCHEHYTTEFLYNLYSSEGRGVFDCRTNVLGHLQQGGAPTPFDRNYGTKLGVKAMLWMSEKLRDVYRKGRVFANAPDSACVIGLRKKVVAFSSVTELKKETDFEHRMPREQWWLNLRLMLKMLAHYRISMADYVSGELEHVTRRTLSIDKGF
Nature of the experiment: Stimulation of 6-phosphofructo-1-kinase (PFK), aldolase-coupled spectrophotometric assay. The conditions noted are these: stimulation of enzyme; pH 7.3, 30°C, 1 mM ATP, reaction initiated with 0.2 mM fructose-6-phosphate; read-out: PFK ED₅₀. Here is the method: (§1) The novel compounds of this invention were tested for their ability to stimulate the enzyme 6-phosphofructo-1-kinase ("PFK") and for their ability to inhibit the enzyme fructose-1,6-bisphosphatase ("FBP") using the procedures described below.
Effects on the activity of PFK were determined using an aldolase-coupled, spectrophotometric assay. The assay mixture contained: 50 mM N-tris(hydroxymethyl)methyl-2-aminoethanesulfonic acid, hydrochloride ("TES-HCl", pH 7.3); 1mM ethylenediaminetetraacetic acid ("EDTA"); 6 mM magnesium chloride; 2.5 mM dithiothreitol; 0.165 mM nicotinamide adenine dinucleotide ("NADH"); 1mM adenosine triphosphate ("ATP"); 0.04U aldolase; 0.4U triose phosphate isomerase; 1.5U alpha-glycerolphosphate dehydrogenase; 0.1U of purified rat liver 6-phosphofructo-1-kinase; and various concentrations of the test compound, all in a final volume of 1 ml. The mixture was preincubated for 3 minutes at 30°C and then the reaction was initiated with 0.2 mM fructose-6-phosphate. The rate of decrease in absorbance at 340 nm was measured at 30°C with a recording spectrophotometer.

A further experiment has as its target T2, purified rat liver FBP (Rattus norvegicus, UniProt P19112).
T2 construct: 0.02U of purified rat liver FBP; from tissue; host or cells: rat liver
T2 sequence (P19112 2-363 limits assumed): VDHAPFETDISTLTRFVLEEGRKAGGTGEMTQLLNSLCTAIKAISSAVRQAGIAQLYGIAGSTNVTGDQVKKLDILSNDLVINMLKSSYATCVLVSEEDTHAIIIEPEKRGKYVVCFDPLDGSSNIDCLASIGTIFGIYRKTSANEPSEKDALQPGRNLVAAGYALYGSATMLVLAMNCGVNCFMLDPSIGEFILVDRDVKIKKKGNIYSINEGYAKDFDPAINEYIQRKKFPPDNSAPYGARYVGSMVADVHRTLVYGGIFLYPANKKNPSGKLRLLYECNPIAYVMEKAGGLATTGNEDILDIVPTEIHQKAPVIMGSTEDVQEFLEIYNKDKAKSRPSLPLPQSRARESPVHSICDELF
Nature of the experiment: Inhibition of fructose-1,6-bisphosphatase (FBP), spectrophotometric assay. Here is the method:
as §1
Effects on the activity of FBP were determined using a spectrophotometric assay. The assay mixture contained: 100 mM tris(hydroxymethyl)aminomethane, hydrochloride ("TRIS-HCl", pH 7.4); 2.5 mM beta-mercaptoethanol; 2 mM magnesium chloride; 0.05 mM EDTA; 0.2 mM nicotinamide adenine dinucleotide phosphate ("NADP"); 10 U phosphoglucose isomerase; 5 U glucose-6-phosphate dehydrogenase; 0.02U of purified rat liver FBP; and various concentrations of the test compound, all in a final volume of 1 ml. The mixture was preincubated for 3 minutes at 30°C and then the reaction was initiated with 0.02 mM fructose-1,6-bisphosphate. The rate of increase in absorbance at 340 nm was measured at 30°C with a recording spectrophotometer.

For experiment [2], the target named is T3, partially purified potato tuber 6-phosphofructo-1-kinase (Solanum tuberosum, UniProt P21342+P21343).
T3 construct: 0.1U of partially purified potato tuber; from tissue; host or cells: potato tuber
T3 sequence (P21343 1-569): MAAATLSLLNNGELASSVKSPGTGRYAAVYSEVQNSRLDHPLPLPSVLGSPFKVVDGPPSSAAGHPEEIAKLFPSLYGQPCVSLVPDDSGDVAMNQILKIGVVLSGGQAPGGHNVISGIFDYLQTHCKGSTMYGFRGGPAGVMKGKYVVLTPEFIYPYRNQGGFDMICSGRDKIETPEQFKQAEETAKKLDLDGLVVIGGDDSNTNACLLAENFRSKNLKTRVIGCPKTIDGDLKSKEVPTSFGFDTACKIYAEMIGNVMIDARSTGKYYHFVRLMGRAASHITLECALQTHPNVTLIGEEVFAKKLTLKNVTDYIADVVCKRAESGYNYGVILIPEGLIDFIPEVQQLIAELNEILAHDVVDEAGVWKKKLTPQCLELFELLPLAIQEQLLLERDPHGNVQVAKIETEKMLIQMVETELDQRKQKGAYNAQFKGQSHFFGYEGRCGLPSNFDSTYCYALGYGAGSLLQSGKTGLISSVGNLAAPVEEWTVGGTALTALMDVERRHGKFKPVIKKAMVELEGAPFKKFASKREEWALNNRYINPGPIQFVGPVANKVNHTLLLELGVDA
T3 sequence (P21342 1-616): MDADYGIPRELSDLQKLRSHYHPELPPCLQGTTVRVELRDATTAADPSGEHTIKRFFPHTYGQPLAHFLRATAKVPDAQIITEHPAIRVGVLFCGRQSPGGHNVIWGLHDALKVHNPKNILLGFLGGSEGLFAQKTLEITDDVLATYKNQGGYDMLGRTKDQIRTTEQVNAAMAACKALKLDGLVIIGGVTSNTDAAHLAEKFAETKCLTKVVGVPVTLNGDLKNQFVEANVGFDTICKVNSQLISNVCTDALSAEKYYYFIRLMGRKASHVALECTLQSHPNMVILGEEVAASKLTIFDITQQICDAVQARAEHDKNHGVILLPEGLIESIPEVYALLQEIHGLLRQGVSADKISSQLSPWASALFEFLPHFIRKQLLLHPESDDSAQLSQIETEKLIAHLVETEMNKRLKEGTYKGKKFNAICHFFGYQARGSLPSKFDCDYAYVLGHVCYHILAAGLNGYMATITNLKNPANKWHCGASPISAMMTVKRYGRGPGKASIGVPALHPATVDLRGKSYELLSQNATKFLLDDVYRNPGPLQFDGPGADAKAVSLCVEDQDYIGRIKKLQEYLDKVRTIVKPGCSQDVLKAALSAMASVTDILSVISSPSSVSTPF
Nature of the experiment: Stimulation of pyrophosphate-dependent 6-phosphofructo-1-kinase (PPi-PFK), aldolase-coupled spectrophotometric assay. The conditions noted are these: stimulation of enzyme; pH 8.0, 30°C, 1 mM fructose-6-phosphate, reaction initiated with 0.5 mM sodium pyrophosphate; read-out: PPi-PFK ED₅₀. Here is the method: The novel compounds of this invention were also tested for their ability to stimulate the enzyme pyrophosphate-dependent 6-phosphofructo-1-kinase ("PPi-PFK"), a growth regulator in plants, using the procedures described below.
Effects on the activity of PPi-PFK were determined using an aldolase-coupled, spectrophotometric assay. The assay mixture contained: 50 mM N-tris(hydroxymethyl)methyl-2-aminoethanesulfonic acid, hydrochloride ("TES-HCl", pH 8.0); 1mM ethylenediaminetetraacetic acid ("EDTA"); 6 mM magnesium chloride; 2.5 mM dithiothreitol; 0.165 mM nicotinamide adenine dinucleotide ("NADH"); 1mM fructose-6-phosphate; 0.04U aldolase; 0.4U triose phosphate isomerase; 1.5U alpha-glycerolphosphate dehydrogenase; 0.1U of partially purified potato tuber 6-phosphofructo-1-kinase; and various concentrations of the test compound, all in a final volume of 1 ml. The mixture was preincubated for 3 minutes at 30°C and then the reaction was initiated with 0.5 mM sodium pyrophosphate. The rate of decrease in absorbance at 340 nm was measured at 30°C with a recording spectrophotometer.

[3] abbreviates: inhibition of enzyme, pH 7.4, 30°C, reaction initiated with 0.02 mM fructose-1,6-bisphosphate, read-out: FBP IC₅₀.

Here are results for 15 compounds from patent publication EP0354323A2, “Antidiabetic phosphates” (AMERICAN CYANAMID COMPANY, priority 1988, dated 1990).

Counter-ions that a name gives are not always drawn. Like-named read-outs stand apart in the source and are kept apart here.

As to `O=P(O)(O)OCC[C@@]1(CO)O[C@H](COP(=O)(O)O)[C@@H](O)[C@@H]1O` [3,6-Anhydro-2-deoxy-3-C-(hydroxymethyl)-D-manno-hepitol, 1,7-bis(dihydrogen phosphate)], in experiment [1], the EC50 is 7.2 µM. Also, the IC50 at purified rat liver FBP (setting [3]) is 100 µM. For `O=P(O)(O)OC[C@H]1O[C@](OP(=O)(O)O)(C(F)F)[C@@H](O)[C@@H]1O` [1-Deoxy-1,1-difluoro-D-fructofuranose, 2,6-bis (dihydrogen phosphate), β-anomer, disodium salt] the same measures were 0.15 µM and above 800 µM. `O=P(O)(O)OC[C@@H](O)[C@H]1O[C@H](COP(=O)(O)O)[C@@H](O)[C@@H]1O` [2,5-Anhydro-D-glycero-D-manno-heptitol, 1,7-bis(dihydrogen phosphate)]: in experiment [1], the EC50 is 2.1 µM. `O=P(O)(O)OC[C@H]1O[C@H](COP(=O)(O)O)[C@@H](O)[C@@H]1O` [2,5-Anhydro-D-mannitol, 1,6-bis(dihydrogen phosphate)]: the EC50 in experiment [1] is 0.26 µM. Moreover, the IC50 against purified rat liver FBP is 2 µM. On to `O=P(O)(O)OCC[C@H]1O[C@H](COP(=O)(O)O)[C@@H](O)[C@@H]1O` [3,6-Anhydro-2-deoxy-D-manno-heptitol, 1,7-bis(dihydrogen phosphate)], for which the EC50 in experiment [1] came to 0.56 µM. Also, the IC50 at purified rat liver FBP (setting [3]) was 50 µM. Turning to `O=P(O)(O)OC[C@H]1O[C@@](CO)(COP(=O)(O)O)[C@@H](O)[C@@H]1O` [2,5-Anhydro-2-C-(hydroxymethyl)-D-glucitol, 1,6-bis(dihydrogen phosphate)], the EC50 in experiment [1] turned out to be 6.3 µM; in experiment [2], 0.4 µM. With `O=P(O)(O)OC[C@H]1O[C@@](CO)(OP(=O)(O)O)[C@@H](O)[C@@H]1O` [Beta-D-fructose-2,6-bisphosphate, reference compound], the EC50 was 0.02 µM in experiment [1] and 0.004 µM in experiment [2]. Further, the IC50 at purified rat liver FBP (setting [3]) came to 3 µM. Regarding `O=P(O)(O)OC[C@H]1O[C@](OP(=O)(O)O)(C(F)F)[C@@H](O)[C@@H]1O` [1-Deoxy-1,1-difluoro-D-fructofuranose, 2,6-bis(dihydrogen phosphate), β-anomer, tetrasodium salt], the EC50 in experiment [2] worked out at 0.3 µM. For `O=P(O)(O)OCC[C@@H]1O[C@H](COP(=O)(O)O)[C@@H](O)[C@@H]1O` [3,6-Anhydro-2-deoxy-D-gluco-heptitol, 1,7-bis(dihydrogen phosphate)], the EC50 in experiment [1] was 4 µM. Moreover, the IC50 on purified rat liver FBP (setting [3]) was determined as 230 µM. In the case of `O=P(O)(O)OC[C@H]1OC(O)(C(F)F)[C@@H](O)[C@@H]1O` (stereo partly drawn) [1-Deoxy-1,1-difluoro-D-fructofuranose, 6-(dihydrogen phosphate), sodium salt], the EC50 in experiment [1] was determined as 300 µM; in experiment [2], 1000 µM. Moreover, at purified rat liver FBP (setting [3]), the IC50 is 450 µM. For the compound `O=P(O)(O)OC[C@H]1O[C@@](OP(=O)(O)O)(C(F)F)[C@@H](O)[C@@H]1O` [1-Deoxy-1,1-difluoro-D-fructofuranose, 2,6-bis(dihydrogen phosphate), α-anomer, tetrasodium salt], the EC50 in experiment [2] turned out to be 15 µM. As for `O=P(O)(O)OC[C@H]1O[C@](CO)(COP(=O)(O)O)[C@@H](O)[C@@H]1O` [2,5-Anhydro-2-C-[(phosphonooxy)methyl]-D-glucitol, 6-(dihydrogen phosphate)], the EC50 in experiment [1] amounted to 2 µM; in experiment [2] it was 6.6 µM.

For the compound `O=P(O)(O)OCCCC1O[C@H](COP(=O)(O)O)[C@@H](O)[C@@H]1O` (stereo partly drawn) [4,7-Anhydro-2,3-dideoxy-D-gluco-octitol, 1,8-bis(dihydrogen phosphate), and 4,7-Anhydro-2,3-dideoxy-D-manno-octitol, 1,8-bis(dihydrogen phosphate)], the EC50 in experiment [1] worked out at 12 µM. Take `O=P(O)(O)OC[C@H]1O[C@@](OP(=O)(O)O)(C(F)F)[C@@H](O)[C@@H]1O` [1-Deoxy-1,1-difluoro-D-fructofuranose, 2,6-bis(dihydrogen phosphate), α-anomer, disodium salt]: the EC50 in experiment [1] is 0.05 µM. The IC50 at purified rat liver FBP (setting [3]) was above 800 µM.

On to `O=P(O)(O)OC[C@@H]1O[C@H](COP(=O)(O)O)[C@@H](O)[C@@H]1O` [2,5-Anhydro-D-glucitol, 1,6-bis(dihydrogen phosphate)], for which, in experiment [1], the EC50 was 2.2 µM. Further, at purified rat liver FBP (setting [3]), the IC50 is 32 µM.
